# Data reported in US20090318451A1, “[…] AGONISTS FOR THE TREATMENT OF PAIN” (Pfizer Inc., priority 2007, published 2009).
# Like-named read-outs stand apart in the source and are kept apart here.
# Experiments:
# [1] = target: T1, human Dopamine D3 receptor (Homo sapiens, UniProt P35462); assay: Inhibition via dopamine D3 receptors of forskolin-stimulated adenylate cyclase activity (cAMP, hD3CHO cells); type: cell-based; details: for functional selectivity for D3 over D2: D2 EC50 divided by D3 EC50, 10000 used where D2 EC50 >10000
# T1 construct: expressed in transfected cells; host or cells: CHO (dihydrofolate reductase deficient), generated in house
# [2] = tested on: MIA-induced weight deficit (rats); assay: MIA-induced weight-bearing deficit; type: in vivo, rat
# D3 dopamine receptor = D3 dopamine receptor (Homo sapiens, UniProt P35462); assay: In vitro binding (membrane preparation), human recombinant receptors, D3
# D2 dopamine receptor = D2 dopamine receptor (Homo sapiens, UniProt P14416); assay: In vitro binding (membrane preparation), human recombinant receptors, D2
# [3] = tested on: Capsaicin-induced hyperalgesia; assay: Capsaicin-induced hyperalgesia, static and dynamic allodynia endpoint; type: in vivo, rat
# D1 = D1 (Homo sapiens, UniProt P21728); assay: In vitro binding (membrane preparation), human recombinant receptors, D1
# D5 = D5 (Homo sapiens, UniProt P21918); assay: In vitro binding (membrane preparation), human recombinant receptors, D5
# [4] = tested on: CCI-induced static and dynamic allodynia (rats); assay: Chronic constriction injury (CCI) of sciatic nerve, static and dynamic allodynia; type: in vivo, rat
# [5] = target: T2, human dopamine D2long receptor (Homo sapiens, UniProt P14416); assay: Inhibition via dopamine D2 receptors of forskolin-stimulated adenylate cyclase activity (cAMP, GH4C1/hD2L cells); type: cell-based
# T2 construct: expressed in transfected cells; host or cells: GH4C1 rat pituitary cells
# D4 dopamine receptor [6] = target: T3, D4 dopamine receptor (Homo sapiens, UniProt P21917); assay: Functional inhibition of forskolin-stimulated cAMP accumulation in human recombinant cell lines, D4; type: cell-based
# T3 construct: expressed in transfected cells
# T3 sequence (P21917 1-419): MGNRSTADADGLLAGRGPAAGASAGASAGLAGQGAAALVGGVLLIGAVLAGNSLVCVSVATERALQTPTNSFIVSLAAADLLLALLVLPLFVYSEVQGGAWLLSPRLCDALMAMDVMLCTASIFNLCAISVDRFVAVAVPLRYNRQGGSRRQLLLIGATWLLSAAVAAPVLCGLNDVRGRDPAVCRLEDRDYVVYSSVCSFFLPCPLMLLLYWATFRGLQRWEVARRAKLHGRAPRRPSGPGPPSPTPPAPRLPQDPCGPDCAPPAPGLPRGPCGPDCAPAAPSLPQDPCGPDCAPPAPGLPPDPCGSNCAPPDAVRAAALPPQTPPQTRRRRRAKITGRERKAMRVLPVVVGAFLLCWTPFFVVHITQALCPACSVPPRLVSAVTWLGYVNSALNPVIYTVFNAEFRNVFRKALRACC
# D4 dopamine receptor [7] = target: T3, D4 dopamine receptor; assay: In vitro binding (membrane preparation), human recombinant receptors, D4
# [8] = Free plasma concentration after oral dosing in pain model rats; details: for peak free-plasma concentration / predicted free-plasma exposure: based on the known PK profile, 0.1 mg/kg
# [9] = tested on: Hotplate paw withdrawal latency (rats); assay: Hotplate paw withdrawal latency; type: in vivo, rat
# [10] = tested on: MIA-induced static allodynia (rats); assay: Monosodium iodoacetate (MIA)-induced static allodynia; type: in vivo, rat
# [11] = tested on: Plantar surgery-induced static and dynamic allodynia (rats); assay: Plantar surgery model of postsurgical pain, static and dynamic allodynia; type: in vivo, rat
# T1 sequence (P35462 whole entry): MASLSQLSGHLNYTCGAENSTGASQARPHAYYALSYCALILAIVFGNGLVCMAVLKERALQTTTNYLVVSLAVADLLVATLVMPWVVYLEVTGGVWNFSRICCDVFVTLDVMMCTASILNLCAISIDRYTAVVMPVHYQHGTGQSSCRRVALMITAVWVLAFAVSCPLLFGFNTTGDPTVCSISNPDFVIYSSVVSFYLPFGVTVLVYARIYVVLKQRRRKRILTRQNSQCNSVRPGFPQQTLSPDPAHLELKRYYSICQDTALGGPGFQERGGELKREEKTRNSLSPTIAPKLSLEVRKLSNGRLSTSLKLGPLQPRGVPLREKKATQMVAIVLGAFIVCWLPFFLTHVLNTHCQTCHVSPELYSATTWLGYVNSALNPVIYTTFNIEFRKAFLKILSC
# T2 sequence (P14416 whole entry): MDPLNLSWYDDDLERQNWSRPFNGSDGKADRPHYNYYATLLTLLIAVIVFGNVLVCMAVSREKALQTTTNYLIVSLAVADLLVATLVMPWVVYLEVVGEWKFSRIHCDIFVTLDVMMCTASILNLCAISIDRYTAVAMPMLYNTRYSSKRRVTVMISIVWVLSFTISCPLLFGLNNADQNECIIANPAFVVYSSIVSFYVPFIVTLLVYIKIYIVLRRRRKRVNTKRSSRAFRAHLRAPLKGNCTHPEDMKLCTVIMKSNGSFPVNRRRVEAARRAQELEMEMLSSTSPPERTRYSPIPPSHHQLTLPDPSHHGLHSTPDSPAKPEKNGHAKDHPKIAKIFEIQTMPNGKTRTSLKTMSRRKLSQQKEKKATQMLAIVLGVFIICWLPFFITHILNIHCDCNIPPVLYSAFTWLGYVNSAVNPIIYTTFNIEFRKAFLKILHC
# D3 dopamine receptor, sequence (P35462 whole entry): as the sequence (P35462 whole entry) above
# D2 dopamine receptor, sequence (P14416 whole entry): as the sequence (P14416 whole entry) above
# D5, sequence (P21918 whole entry): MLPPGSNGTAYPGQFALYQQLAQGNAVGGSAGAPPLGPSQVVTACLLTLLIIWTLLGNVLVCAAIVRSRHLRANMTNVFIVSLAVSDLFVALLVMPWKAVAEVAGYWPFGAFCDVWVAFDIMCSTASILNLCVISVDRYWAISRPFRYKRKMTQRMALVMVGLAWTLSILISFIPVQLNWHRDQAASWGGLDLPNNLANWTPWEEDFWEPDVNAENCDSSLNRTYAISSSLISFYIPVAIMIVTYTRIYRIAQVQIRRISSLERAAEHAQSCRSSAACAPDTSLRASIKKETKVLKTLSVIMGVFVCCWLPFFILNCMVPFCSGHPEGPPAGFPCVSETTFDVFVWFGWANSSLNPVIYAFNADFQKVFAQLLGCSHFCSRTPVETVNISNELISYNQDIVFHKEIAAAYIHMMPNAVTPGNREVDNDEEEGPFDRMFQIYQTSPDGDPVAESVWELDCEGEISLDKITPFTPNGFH
# D1, sequence (P21728 whole entry): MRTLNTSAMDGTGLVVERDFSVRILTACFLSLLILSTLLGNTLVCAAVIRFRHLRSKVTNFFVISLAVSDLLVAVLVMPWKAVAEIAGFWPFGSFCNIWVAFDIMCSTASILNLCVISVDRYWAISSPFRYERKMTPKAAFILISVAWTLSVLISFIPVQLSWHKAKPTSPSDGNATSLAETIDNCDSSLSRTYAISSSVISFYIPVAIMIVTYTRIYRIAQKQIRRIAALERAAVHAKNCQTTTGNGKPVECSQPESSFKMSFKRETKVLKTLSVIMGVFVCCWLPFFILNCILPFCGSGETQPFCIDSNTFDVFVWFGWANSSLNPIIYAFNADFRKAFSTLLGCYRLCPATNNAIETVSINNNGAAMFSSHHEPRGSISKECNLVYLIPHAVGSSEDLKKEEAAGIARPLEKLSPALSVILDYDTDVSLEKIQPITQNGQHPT
smiles,measurement,setting,value
"CCCN1CCO[C@H](c2cccc(O)c2)C1.Cl [Example 8, R-(−)-3-(4-Propylmorpholin-2-yl)phenol hydrochloride]",EC50,[1],0.0076 µM
same,functional selectivity for D3 over D2,[1],1315.8 fold
"CCCN1C[C@@H](c2ccc(N)nc2)OC[C@@H]1C [Example 67, 5-[(2R,5S)-5-methyl-4-propylmorpholin-2-yl]pyridin-2-amine]","Minimum Effective Dose, MIA-induced weight deficit","[2]; oral, single-dose study",0.1 mg/kg oral single-dose study
same,efficacy on weight-bearing deficit following MIA injection,[2]; single dose 0.1 mg/kg,efficacy similar to optimal opioid treatment
same,Ki,D3 dopamine receptor,0.215 µM
same,binding selectivity over D2 dopamine receptor,D3 dopamine receptor; D3 versus D2 binding,> 46 fold
same,IC50,D2 dopamine receptor,> 10 µM
same,"Minimum Effective Dose, capsaicin-induced hyperalgesia",[3]; oral,0.01 mg/kg oral
same,dose giving optimal effect in capsaicin model,"[3]; rat, oral pre-dosing",1 mg/kg
same,effect on capsaicin-induced static and dynamic allodynia,"[3]; rat, oral pre-dosing 0.01, 0.1 and 1 mg/kg, capsaicin 1 hour after dosing",dose response
same,IC50,D1,> 10 µM
same,IC50,D5,> 10 µM
same,"Minimum Effective Dose, CCI-induced static and dynamic allodynia",[4]; oral,No effect up to 0.1 mg/kg oral
same,effect on CCI-induced static and dynamic allodynia,[4]; oral 0.1 mg/kg,no effects
same,EC50,[5],> 10 µM
same,"% Response @ 10 μM, D2","[5]; 10 μM, response as percentage of the effect to pramipexole, (95% CI)",% Response @ 10 μM = 36 (19-56)
same,EC50,D4 dopamine receptor [6],3.9 µM
same,Emax,"D4 dopamine receptor [6]; forskolin-stimulated cAMP accumulation, (95% CI)",92%
same,Ki,D4 dopamine receptor [7],4.16 µM
same,peak free-plasma concentration / predicted free-plasma exposure,[8]; oral 0.1 mg/kg,10 nM
same,peak free-plasma concentration / predicted free-plasma exposure,"[8]; oral 0.1 mg/kg, listed as 5-[(2R,5S)-5-methyl-4-propylmorpholin-2-yl]pyridin-2-amine",approximately 10 nM
same,"measured mean free Cmax for MED, MIA-induced static allodynia","[8]; rats, 0.01 mg/kg oral",1.85 nM
same,free plasma concentration,"[8]; rats, oral 0.01 mg/kg",1.85 nM
same,free plasma concentration,"[8]; rats, oral 0.03 mg/kg",5.70 nM
same,free plasma concentration,"[8]; rats, oral 0.1 mg/kg",10.77 nM
same,efficacy in hotplate model (paw withdrawal latency),"[9]; rat, oral 0.01, 0.03, 0.1 and 1.0 mg/kg, hotplate 52° C.",no efficacy
same,"Minimum Effective Dose, hotplate paw withdrawal latency","[9]; rats, oral",No effect up to 1.0 mg/kg oral
same,functional selectivity for D3 over D2,[1],> 470 fold
same,Emax,"[1]; D3, CHO cells, full agonist, normalised to pramipexole, read-out: % Emax",95%
same,functional selectivity over D4 dopamine receptor,"[1]; D3 versus D4, cAMP",180 fold
same,Emax,"[1]; forskolin-stimulated cAMP accumulation, (95% CI), read-out: % Emax, D3",95%
same,"Minimum Effective Dose, MIA-induced static allodynia",[10]; oral,0.01 mg/kg
same,reversal of MIA-induced static allodynia,[10]; oral 0.1 mg/kg,full reversal
same,reversal of MIA-induced static allodynia,"[10]; oral 0.01, 0.03 and 0.1 mg/kg",dose response in reversal of the allodynia
same,oral dose giving maximal effect on surgery-induced allodynia,[11],0.1 mg/kg
same,reversal of surgery-induced static and dynamic allodynia,[11]; oral,dose-dependent reversal
"CC(C)C[C@H](CN)CC(=O)O [pregabalin, reference compound]","effect in capsaicin model, positive control compared with Example 67 at 1 mg/kg","[3]; rat, 30 mg/kg",equivalent in magnitude
"N#Cc1ccc2c(c1)CCN(CCC1CCC(NC(=O)c3ccnc4ccccc34)CC1)C2 (stereo not drawn) [quinoline-4-carboxylic acid (4-[2-(6-cyano-3,4-dihydro-1H-isoquinolin-2-yl)ethyl]cyclohexyl)-amide, reference compound]",effect of 0.1 mg/kg of the compound of Example 67 on MIA allodynia after D3 antagonist,[10]; antagonist oral 3 mg/kg,abolished
"COc1cccc(C2(O)CCCCC2CN(C)C)c1 (stereo not drawn) [tramadol, reference compound]","reversal of MIA-induced static allodynia, positive control",[10]; 100 mg/kg,full reversal
